Several values for one entry are separate records, joined by “and”; a condition that tells them apart may be missing. Identical values can stand only once. Like-named read-outs stand apart in the source and are kept apart here.
Columns and labels:
[1] = in vivo; details: female, OF-1, mouse, iv, 86.2 umol/kg
Procedure: (§4) Time evolution of plasma concentration (A, B) and of cardiac tissue concentration (C, D) of Doxorubicin or PhAc-ALGP-Dox and its metabolites after i.v. bolus injection to OF-1 female wild type mice at the dose of 86.2 μmol/kg. Results represent the mean concentration±SD (n=3).
(§5) Pharmacokinetic tissue distribution studies were performed using OF-1 mice. […] At different time points after drug administration (5 min, 30 min, 1 h, 4 h, 7 h, 16 h and 24 h) 3 mice per group were sacrificed by cervical dislocation and blood and heart tissue were collected. Hearts were incised and rinsed carefully in phosphate buffer saline (to eliminate blood in the cardiac cavities), dried on paper and frozen in liquid nitrogen. They were stored until analysis. Blood samples were centrifuged (10 min, 2000 g, 4° C.) to separate the plasma fraction, which was stored for analysis. The hearts were homogenized with an Ultraturrax homogenizer in 1.5 mL water. The protein concentration was measured using the microBCA protein assay (Pierce). The drug tissue quantification was made by HPLC after extraction: 150 μL of acetonitrile was added to the 50 μL samples. Samples were vortexed and centrifuged for 10 min at 13 000 rpm at room temperature. Supernatant was collected. Samples were buffered by addition of 200 mM formiate buffer pH 4.5 (1 V sample supernatant+3 V buffer) before HPLC analysis (fluo detection ex=235 nm em=560 nm).

[2] = Pharmacokinetics and heart tissue quantification after single iv bolus
Procedure: as §4, §5

[3] = assay type: in vivo, CD1 mice
Procedure: FIG. 12. Evaluation of PhAc-ALGP-Dox leucopenic effect in comparison with Doxorubicin. CD1 mice received twice daily intraperitoneal injections of PhAc-ALGP-Dox 35 μmol/kg (●) or of Doxorubicin 3.5 μmol/kg (▪) for five consecutive days. The mice body weight evolution was recorded (A). Blood was collected from the tail vein in heparinised Microvettes tubes (Starsted) at day 4, 11 and 15 after treatment initiation. Peripheral white blood cells (WBC) were counted using the SCILvet abc hematologic analyzer (B). The increase or decrease in WBC is expressed as a percentage of WBC on day 0 (100%) for each mouse. The curves show evolution of the mean percentages.
The leucopenic effects of PhAc-ALGP-Dox (35 μmol/kg ip) and of Doxorubicin (3.5 μmol/kg ip) were compared in two independent experiments. CD1 mice received two daily intraperitoneal injections of drugs for five consecutive days (total 10 injections/mouse; 2×5 animals per group). The mice body weight evolution was recorded. Blood was collected from the tail vein in EDTA-coated Microvettes tubes (Starsted) at day 4, 11 and 15 after treatment initiation. White blood cells (WBC) were counted using the SCILvet abc hematologic analyzer. The increase or decrease in WBC was expressed as a percentage of WBC on day 0 (100%) for each mouse.

[4] = tested on: mouse embryonic fibroblasts (MEF); assay: In vitro cytotoxicity on control fibroblasts (neutral red uptake); assay type: cell-based; details: 48 h
Procedure: (§1) FIG. 5. In vitro cellular toxicity of PhAc-ALGP-Dox and Doxorubicin on Cor.At® cells (mouse embryonic stem cell derived cardiomyocytes). As non-specific control, the test was also performed on inactivated mouse embryonic fibroblasts (MEF). Cells were cultured for 48 h in the presence of drugs and a neutral red uptake test was performed to determine cell viability. Results represent the cytotoxicity curves. The IC50 values were calculated from the cytotoxicity curves using the Prism GraphPad software 5.0.
(§2) The in vitro cardiotoxicity test was carried out in a relevant and predictive in vitro model for cardiac safety screening in early lead optimization using mouse embryonic stem cell derived cardiomyocytes (Cor.At®, Axiogenesis (Germany)). Cor.At® cardiomyocytes provide a standardized, homogenous and reproducible cell system for the in vitro classification of a compound's cardio-cytotoxic potential. After incubation with test compounds, the neutral red uptake test was used to determine effects which directly affect the viability and integrity of cardiac cells when compared to a non-specific reference cell type, e.g. mouse fibroblasts (MEF).

[5] = tested on: UZLX-STS3 dedifferentiated liposarcoma xenograft
From the text: FIG. 16. Effect of PhAc-ALGP on a UZLX-STS3 xenograft model. UZLX-STS3 is a tissue xenograft derived from a patient diagnosed with dedifferentiated liposarcoma (DDLPS).
A total of 24 mice were bilaterally transplanted with UZLX-STS3 (tissue xenografts of passage 10). Animals were randomly assigned to three different groups: a control group (saline; -●-); A PhAc-ALGP-doxorubicin group (cumulative dose 1.20 mmol/kg; -▪-) and a doxorubicin group (cumulative dose 0.03 mmol/kg; -▴-). The drugs were administered intraperitoneally during 7 days by continuous release via an Alzet® osmotic pump, with delivery rate of 0.5 μl/h over 7 days. The experiment lasted 21 days (7 days of treatment+14 days of observation). Tumor volume and mouse body weight were evaluated at baseline and subsequently three times per week until the end of each experiment. After 21 days mice were sacrificed. Tumor volume is recorded 3× weekly by 3-dimensional caliper measurement. Data are presented as the average of the relative tumor volumes per group±standard deviation.
The comparison between the tumor volumes on day zero and the volumes on the last day of the experiments was done by Wilcoxon's matched paired test. The comparisons between different groups were performed using the Mann-Whitney U test (relative tumor volumes, histologic assessment). […] The […] software (StatSoft, version 12.0) was used for all the calculations.
(§3) FIG. 18. Data are presented as the average of the white blood cell count of mice in every group±standard deviation. The dashed lines mark the reference values for nu/nu NMRI mouse strain. PhAc-ALGP-doxorubicin (-▪-); Dox (-▴-); and saline (-●-). Total white blood cell count was determined using the CELL-DYN 3500 multiparameter automated hematology analyzer with optimization for murine blood parameters (Abott Diagnostics, Division, Ill., USA)
as §3, with “19.” for “18.”, “neutrophil” for “white blood cell”, “Neutrophil” for “Total white blood cell”

[6] = tested on: Cor.At® cells (mouse embryonic stem cell derived cardiomyocytes); assay: In vitro cytotoxicity on Cor.At cardiomyocytes (neutral red uptake); assay type: cell-based; details: 48 h
Procedure: as §1, §2

[7] = tested on: MX-1 mammary carcinoma human xenografts; assay: Efficacy after repeated ip injections (2Q1D5×2W), MX-1 xenograft; assay type: in vivo, NMRI nude mice; details: for TGI [% (day)]: day 35; for body weight loss (in words): Doxorubicin 1 μmol/kg (MTD), PhAc-ALGP-Dox 50 μmol/kg, ip 2Q1D5×2W
Procedure: FIG. 10. […] Drugs or controls were administered by the i.p. route twice a day for five consecutive days (arrows). Treatment was repeated with 72 hours interval between two cycles.

COc1cccc2c1C(=O)c1c(O)c3c(c(O)c1C2=O)C[C@@](O)(C(=O)CO)C[C@@H]3O[C@H]1C[C@H](N)[C@H](O)[C@H](C)O1 [Doxorubicin, reference compound]
AUC [1]: 63 µM·h
drug plasma concentration eliminated in the first five minutes ([2]; i.v. bolus 86.2 μmol/kg): About 90%
mortality ([3]; 3.5 μmol/kg ip 2Q1D5, 2×5 animals): one mouse was found dead at day 11 as well as 3 mice at day 15
viability of MEF ([4]; 0.2 μg/ml): 89%
toxic effect on MEF (in words) ([4]; 20 μg/ml and 2 μg/ml): severe toxic effect
relative tumor volume at day 21 ([5]; ip, 30 umol/kg): 246%
viability of Cor.At cardiomyocytes ([6]; 0.2 μg/ml): 67%
toxic effect on Cor.At cardiomyocytes (in words) ([6]; 20 μg/ml and 2 μg/ml): severe toxic effect
TGI [% (day)] ([7]; 1 μmol/kg ip 2Q1D5×2W): 44% and 44 (35), n = 3%
toxicity (in words) ([7]; 1.5 μmol/Kg ip 2Q1D5×2W): very toxic
body weight loss (in words) [7]: No significant body weight loss

COc1cccc2c1C(=O)c1c(O)c3c(c(O)c1C2=O)CC(O)(C(=O)CO)CC3OC1CC(NC(=O)C2CCCN2C(=O)CNC(=O)C(CC(C)C)NC(=O)C(C)NC(=O)CP(=O)(O)O)C(O)C(C)O1 (centres unmarked) [PhAc-ALGP-Dox, PhAc-ALGP-doxorubicin]
AUC [1]: 97 µM·h
Dox heart AUC versus Dox administration (times lower) ([2]; equimolar 86.2 μmol/kg iv): 25 times
plasma AUC of Doxorubicin after Doxorubicin versus after PhAc-ALGP-Dox (times higher) ([2]; equimolar 86.2 μmol/kg iv): 63 times
drug plasma concentration eliminated in the first five minutes ([2]; i.v. bolus 86.2 μmol/kg): About 90%
fraction hydrolysed into LGP-Dox, GP-Dox and Dox in plasma ([2]; i.v. bolus 86.2 μmol/kg): Less than 1%
time after which metabolites were no longer detected in plasma ([2]; i.v. bolus 86.2 μmol/kg): 1 h
Heart AUC of PhAc-ALGP-Dox ([2]; one i.v. bolus 86.2 μmol/kg): 23 pmol · h/mg protein
leucopenic effect and body weight loss (in words) ([3]; 35 μmol/kg ip 2Q1D5): No leucopenic effect and body weight loss
IC50 on MEF ([4]; up to 20 μg/ml): no IC50 is reached
neutrophil count (in words) ([5]; 21 days after administration at 40-times higher dose than free doxorubicin): unchanged netrophil count
relative tumor volume at day 21 ([5]; cumulative dose 1.20 mmol/kg ip via osmotic pump over 7 days, day 0 = 100%): 105%
total white blood cells and neutrophils (in words) ([5]; cumulative dose 1.20 mmol/kg, versus control or doxorubicin-treated animals): No major changes
toxic effect (in words) ([6]; all concentrations lower than 20 μg/ml): did not show any toxic effect
TGI [% (day)] ([7]; 50 μmol/kg ip 2Q1D5×2W): 76% and 76 (35), n = 4%
body weight loss (in words) [7]: No significant body weight loss

— US10076576B2, “Minimally toxic prodrugs” (priority 2012, dated 2018)
